Data on three compounds can be found in patent US20110039779A1, “IGF-1R BINDING PROTEINS AND ANTAGONISTS” (priority 2007, published 2011).

As a reminder, the Kd is a measure of binding affinity in units of concentration. Low readings indicate tighter binding, high ones weaker binding.

Like-named read-outs stand apart in the source and are kept apart here. Where a SMILES comes first, the peptide text is derived from it. Bounds are passed on as bounds.

For test [1], the target named is T1, HIGF-1R (Homo sapiens, UniProt P08069).
T1 construct: HIGF-1R was purified from a cell culture of BHK cells stably transfected with IGF-1R cDNA; made in house; host or cells: BHK cells stably transfected with IGF-1R cDNA
In words: IGF-1R affinity, scintillation proximity assay (SPA assay), 125I-IGF1 displacement. In kind it is binding. The source says: In certain cases, a scintillation proximity assay (SPA assay) was used to determine IGF-1R affinity.
Background: SPA uses beads or plates that emit light when radiolabelled molecules are held near them.

Test [2] has as its system SW480 cells. In kind it is cell-based. The following applies: for IC50: read-out: IC50, inhibition of IGF-1 (10 nM)-induced proliferation of SW480 cells. How it is done: For cell growth/density studies, a mitochondrial activity assay was used, as exemplified by the following. Cells (SW480, MCF-7S8) were propagated in complete medium (DME: F12, 10% FCS (SW 480) or 5% FCS (MCF-7S8, P/S)), trypsinized, and seeded in 96 well plates as 10,000 cells/well in medium with 0.5% FCS. All wells in the periphery were omitted and only filled with medium. […] All treatments are made in triplicates. […] Treatment was continued for 48 hours (SW480 cells) or 72 hours (MCF-7S8 cells) before quantification of the cell density. Media was exchanged each day. Media and peptides were diluted in DMSO. When measuring cell density, the volume of each well was adjusted to […] Pre-diluted WST-1 (1 ml+1.5 ml DME:F12) was added as 25 μL to each well including background samples. Three wells with media only served as background controls. The cells were incubated for 90 min protected against light in an incubator.

In test [3] the test system is PKB/Akt. As to the kind of experiment: downstream signaling in L6 cells: PKB/Akt. The following applies: 3 nM IGF-1, read-out: PKB/Akt, IC50 for down regulation of the stimulation to the basal level. In kind it is cell-based. The procedure: (§1) The tyrosine phosphorylation of IRS signaling (the 180 kDa band on a tyrosine phosphor Western blot) as well as activation of effectors MAPK 44 and 42 and PKB were analyzed by using antibodies specific for their active forms using methods substantially similar to those described in Example 14 of the '246 PCT application.
(§2) The effect of select peptides on downstream signaling (MAPK44, MAPK42, PKB/Akt, IRS-1, and IGF-1R) was also measured by studying the signaling in L6 cells predominantly expressing IGF-1R and very limited insulin receptors. […] The antagonistic effect of the peptides can be seen to affect all the downstream signaling from the IGF-1R.

The subject of test [4] is MAPK44. As to the kind of experiment: downstream signaling in L6 cells: MAPK44. In kind it is cell-based. The following applies: 3 nM IGF-1, read-out: MAPK44, IC50 for down regulation of the stimulation to the basal level. How it is done: as §1, §2
For test [5], the system named is MAPK42. As to the kind of experiment: downstream signaling in L6 cells: MAPK42. In kind it is cell-based. The following applies: 3 nM IGF-1, read-out: MAPK42, IC50 for down regulation of the stimulation to the basal level. How it is done: as §1, §2
The subject of test [6] is IGF-IR. As to the kind of experiment: downstream signaling in L6 cells: IGF-IR. Conditions: 3 nM IGF-1, read-out: IGF-IR, IC50 for down regulation of the stimulation to the basal level. In kind it is cell-based. The procedure:
as §1, §2

Test [7] deals with IRS-1. In words: downstream signaling: IRS-1 tyrosine phosphorylation. In kind it is cell-based. The following applies: for IC50: L6 cells, 3 nM IGF-1, read-out: IRS-1, IC50 for down regulation of the stimulation to the basal level. The procedure: as §1, §2
Test [8] addresses MCF7 cells (Homo sapiens, UniProt P08069). In words: antagonism assay in starved MCF7 cells, luminescence viability, 72 hrs. In kind it is cell-based. The following applies: Table 9. The procedure: Additional binding and antagonism assays using candidate peptides were performed. […] Cell viability was determined by luminescence assay and IC50 was calculated using standard techniques.

The subject of test [9] is MiaPaCa cells. In words: gene expression changes in MiaPaCa cells (gene arrays). In kind it is cell-based, human. The following applies: IGF-1 (25 ng/ml) +/− ANT-429, 24 hours.
For test [10], the system named is MiaPaCa cells. In words: MiaPaCa tumor growth inhibition in nude mice. In kind it is in vivo. How it is done:
Nude mice were inoculated with MiaPaCa cells (one million cells in matrigel) on the flank and followed until tumors reached a volume of greater than 100 mm^3. […] Animals were injected by the subcutaneous route 4 times per week for 3 weeks and followed for an additional 2 weeks without injections. Tumors were measured twice weekly. Animals were sacrificed and the tumors excised, weighed and photographed.

Test [11] concerns the target human insulin receptor (HIR) (Homo sapiens, UniProt P06213). In words: human insulin receptor (HIR) affinity. In kind it is binding. Conditions: printed in brackets under the HIR affinity, not explained. How it is done: IGF-1R affinity studies were generally performed as follows. […] HIGF-1R was purified from a cell culture of BHK cells stably transfected with IGF-1R cDNA. The day before harvest cells were moved to serum free conditions and before harvest the cells were rinsed with and ice cold PBS solution. The cells were solubilized in cold lysis buffer (4 ml lysis buffer/1×10^8 cells); vortexed vigorously to lysis in lysis buffer (50 mM Hepes (pH 8.0); 150 mM NaCl; 1% Triton X-100; 2 mM EDTA; 10 μg/mlaprotinin; 0.5 mM PEFABLOC (Roche)); and the lysate centrifuged at 4° C., 20000 rpm, for 15 minutes. The HIGF-1R portion was absorbed to WGA-agarose beads and subjected to chromatography purification (Pharmacia biotech No 17-0760-01) (column washed with 20× column volumes wash buffer −50 mM Hepes (pH 8.0); 150 mM NaCl; 0.1% Triton X-100; 0.5 mM PEFABLOC (Roche)). The HIGF-1R portion was then eluted with 0.5 M n-Acetyl Glycosamine (NAG), 10% Glycerol in elution buffer (50 mM Hepes (pH 8.0); 150 mM NaCl; 0.1% Triton X-100; 0.5 mM PEFABLOC (Roche); 0.5 M n-acetyl glucosamine; 10% glycerol). […] After equilibration for 2 days at 4° C., each sample (200 μl) typically was precipitated by addition of 400 μl 25% PEG 6000, centrifuged, washed with 1 ml 15% PEG 6000, and counted in a gamma-counter. In some cases, human insulin receptor (HIR) affinity for select test peptides was similarly measured.

Test [12] concerns SGBS adipocytes transfected with HIR-encoding DNA. In words: 3H glucose incorporation (insulin agonist activity) in SGBS adipocytes. In kind it is cell-based. How it is done:
Insulin increases uptake of ^3H glucose into adipocytes and its conversion into lipid. Incorporation of ^3H into the lipid phase was determined by partitioning of lipid phase into a scintillant mixture, which excludes water-soluble ^3H products. […] The results are expressed as increase relative to full insulin response.

Test [13] relates to insulin receptor/IGF-1R. As to the kind of experiment: tyrosine phosphorylation of insulin receptor/IGF-1R in L6-hIR cells (Western blot). In kind it is cell-based. On the technique in general: A western blot detects proteins with antibodies after separation by electrophoresis.
The target of test [14] is T2, IGF-1R on L6 (with mainly symmetric IGF-1R) (Rattus norvegicus, UniProt P24062).
T2 construct: L6 cells predominantly expressing IGF-1R and very limited insulin receptors; endogenous in cells; host or cells: L6 cells
In words: displacement of IGF-1 binding on L6 cells.

T2 sequence (P24062 31-737 limits assumed): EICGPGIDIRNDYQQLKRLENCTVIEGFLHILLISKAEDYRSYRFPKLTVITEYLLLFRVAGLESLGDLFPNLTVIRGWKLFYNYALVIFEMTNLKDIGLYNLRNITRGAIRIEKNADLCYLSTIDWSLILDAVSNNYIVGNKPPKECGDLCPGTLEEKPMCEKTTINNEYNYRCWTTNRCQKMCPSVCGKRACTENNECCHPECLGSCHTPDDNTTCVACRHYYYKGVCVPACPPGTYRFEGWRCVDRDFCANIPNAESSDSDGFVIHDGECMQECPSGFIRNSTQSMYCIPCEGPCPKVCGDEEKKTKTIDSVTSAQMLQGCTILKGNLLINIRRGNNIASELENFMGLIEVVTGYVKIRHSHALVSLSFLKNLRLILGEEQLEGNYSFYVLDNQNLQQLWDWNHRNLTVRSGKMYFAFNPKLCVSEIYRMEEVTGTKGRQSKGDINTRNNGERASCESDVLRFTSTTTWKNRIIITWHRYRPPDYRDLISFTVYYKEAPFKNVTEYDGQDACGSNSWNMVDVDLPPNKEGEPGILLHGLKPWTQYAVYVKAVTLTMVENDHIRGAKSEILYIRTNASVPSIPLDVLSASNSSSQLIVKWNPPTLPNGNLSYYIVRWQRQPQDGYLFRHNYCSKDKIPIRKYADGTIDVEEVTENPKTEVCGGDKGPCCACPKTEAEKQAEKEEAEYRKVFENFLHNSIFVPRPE
T2 sequence (P24062 742-1370 limits assumed): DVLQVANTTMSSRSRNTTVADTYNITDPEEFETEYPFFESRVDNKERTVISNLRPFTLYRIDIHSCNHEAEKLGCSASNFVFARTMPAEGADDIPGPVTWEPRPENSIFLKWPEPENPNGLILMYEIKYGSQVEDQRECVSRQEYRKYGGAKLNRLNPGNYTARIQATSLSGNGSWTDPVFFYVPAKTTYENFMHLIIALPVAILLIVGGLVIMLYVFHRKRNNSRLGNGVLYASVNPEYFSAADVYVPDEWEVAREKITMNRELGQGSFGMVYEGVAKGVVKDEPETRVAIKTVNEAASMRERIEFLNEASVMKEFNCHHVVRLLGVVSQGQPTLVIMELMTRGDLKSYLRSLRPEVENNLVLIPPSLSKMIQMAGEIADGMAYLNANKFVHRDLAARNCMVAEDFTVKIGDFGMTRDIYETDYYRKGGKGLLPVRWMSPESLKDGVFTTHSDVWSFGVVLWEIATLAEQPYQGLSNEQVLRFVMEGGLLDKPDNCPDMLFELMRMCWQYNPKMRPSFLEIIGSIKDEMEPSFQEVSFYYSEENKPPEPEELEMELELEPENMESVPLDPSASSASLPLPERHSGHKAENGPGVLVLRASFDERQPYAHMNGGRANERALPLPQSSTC
human insulin receptor (HIR), sequence (P06213 28-758 limits assumed): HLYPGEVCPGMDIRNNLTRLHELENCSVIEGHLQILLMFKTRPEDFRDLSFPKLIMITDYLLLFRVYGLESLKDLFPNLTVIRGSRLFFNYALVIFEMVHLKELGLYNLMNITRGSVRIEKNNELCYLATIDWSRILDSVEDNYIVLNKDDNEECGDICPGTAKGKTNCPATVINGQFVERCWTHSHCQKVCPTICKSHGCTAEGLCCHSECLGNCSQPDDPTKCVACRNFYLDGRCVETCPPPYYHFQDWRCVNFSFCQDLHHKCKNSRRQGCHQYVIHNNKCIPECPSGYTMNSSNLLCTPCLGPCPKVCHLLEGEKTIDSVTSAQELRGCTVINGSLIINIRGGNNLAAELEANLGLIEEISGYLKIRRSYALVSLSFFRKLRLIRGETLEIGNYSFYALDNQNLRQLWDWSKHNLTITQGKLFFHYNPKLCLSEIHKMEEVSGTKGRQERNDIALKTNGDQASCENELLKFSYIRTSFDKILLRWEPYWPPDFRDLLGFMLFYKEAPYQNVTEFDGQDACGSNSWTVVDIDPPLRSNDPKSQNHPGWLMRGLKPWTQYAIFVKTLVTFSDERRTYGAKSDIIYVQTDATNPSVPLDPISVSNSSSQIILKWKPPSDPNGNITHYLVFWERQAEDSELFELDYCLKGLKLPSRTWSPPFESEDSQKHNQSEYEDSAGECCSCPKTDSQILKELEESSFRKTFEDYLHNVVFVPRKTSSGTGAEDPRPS
human insulin receptor (HIR), sequence (P06213 763-1382 limits assumed): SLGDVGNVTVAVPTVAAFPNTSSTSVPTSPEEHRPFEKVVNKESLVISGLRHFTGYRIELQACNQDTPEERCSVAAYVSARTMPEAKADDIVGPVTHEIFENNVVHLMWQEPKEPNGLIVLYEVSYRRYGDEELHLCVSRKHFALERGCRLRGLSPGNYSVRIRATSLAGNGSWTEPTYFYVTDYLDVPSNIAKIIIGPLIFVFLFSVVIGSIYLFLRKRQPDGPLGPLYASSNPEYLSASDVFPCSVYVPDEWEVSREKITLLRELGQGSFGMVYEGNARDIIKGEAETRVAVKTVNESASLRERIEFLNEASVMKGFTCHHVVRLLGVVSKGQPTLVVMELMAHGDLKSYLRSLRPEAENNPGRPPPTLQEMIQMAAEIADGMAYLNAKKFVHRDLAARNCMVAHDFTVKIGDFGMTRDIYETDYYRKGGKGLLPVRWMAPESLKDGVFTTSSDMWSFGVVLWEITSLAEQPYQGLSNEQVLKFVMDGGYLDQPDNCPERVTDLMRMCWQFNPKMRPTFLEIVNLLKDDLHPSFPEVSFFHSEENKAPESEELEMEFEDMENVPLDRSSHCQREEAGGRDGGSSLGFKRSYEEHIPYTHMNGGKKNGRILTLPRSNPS
MCF7 cells, sequence (P08069 31-736): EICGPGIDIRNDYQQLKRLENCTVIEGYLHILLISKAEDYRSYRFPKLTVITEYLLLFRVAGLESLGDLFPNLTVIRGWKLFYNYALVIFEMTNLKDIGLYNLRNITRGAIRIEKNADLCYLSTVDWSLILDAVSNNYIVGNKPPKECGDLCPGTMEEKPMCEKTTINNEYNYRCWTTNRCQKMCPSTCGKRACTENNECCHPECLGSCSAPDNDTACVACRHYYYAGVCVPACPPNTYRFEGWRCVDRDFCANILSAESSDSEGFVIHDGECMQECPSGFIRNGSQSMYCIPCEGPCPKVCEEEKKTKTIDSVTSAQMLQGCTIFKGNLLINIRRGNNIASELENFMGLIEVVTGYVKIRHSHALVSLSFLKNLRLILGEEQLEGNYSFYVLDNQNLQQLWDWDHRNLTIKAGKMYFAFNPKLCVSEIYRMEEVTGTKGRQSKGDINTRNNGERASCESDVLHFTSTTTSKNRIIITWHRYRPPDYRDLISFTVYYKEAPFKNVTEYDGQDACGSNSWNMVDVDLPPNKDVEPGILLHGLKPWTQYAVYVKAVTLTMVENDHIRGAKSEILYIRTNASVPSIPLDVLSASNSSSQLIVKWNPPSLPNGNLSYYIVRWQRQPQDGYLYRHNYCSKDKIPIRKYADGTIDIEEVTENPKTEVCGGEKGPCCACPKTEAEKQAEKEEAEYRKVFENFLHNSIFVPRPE
T1 sequence (P08069 31-736 limits assumed): as the sequence (P08069 31-736) above
T1 sequence (P08069 741-1367 limits assumed): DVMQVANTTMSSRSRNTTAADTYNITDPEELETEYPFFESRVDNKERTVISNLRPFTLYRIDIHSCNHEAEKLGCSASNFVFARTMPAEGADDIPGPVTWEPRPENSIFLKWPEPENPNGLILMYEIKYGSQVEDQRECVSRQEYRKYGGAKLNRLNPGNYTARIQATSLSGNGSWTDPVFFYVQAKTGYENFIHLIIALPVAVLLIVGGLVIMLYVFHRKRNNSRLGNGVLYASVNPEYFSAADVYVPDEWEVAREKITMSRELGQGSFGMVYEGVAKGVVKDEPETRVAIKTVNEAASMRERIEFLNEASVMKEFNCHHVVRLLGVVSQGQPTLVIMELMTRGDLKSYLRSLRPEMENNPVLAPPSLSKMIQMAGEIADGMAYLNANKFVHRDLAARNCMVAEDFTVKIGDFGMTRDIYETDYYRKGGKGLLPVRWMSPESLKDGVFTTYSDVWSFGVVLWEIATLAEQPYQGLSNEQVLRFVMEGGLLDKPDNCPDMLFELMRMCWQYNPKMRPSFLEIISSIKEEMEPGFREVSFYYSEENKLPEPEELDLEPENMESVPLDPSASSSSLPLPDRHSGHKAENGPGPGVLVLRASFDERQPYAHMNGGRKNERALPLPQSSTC

In [1], `CC(C)C[C@H](NC(=O)[C@H](CCC(=O)O)NC(=O)[C@H](CCC(=O)O)NC(=O)[C@H](CS)NC(=O)[C@H](CO)NC(=O)[C@H](Cc1ccc(O)cc1)NC(=O)[C@H](Cc1ccccc1)NC(=O)[C@@H](N)CO)C(=O)N[C@H](C(=O)N[C@@H](CCC(N)=O)C(=O)NCC(=O)N1CCC[C@H]1C(=O)N[C@@H](C)C(=O)N[C@@H](CCC(=O)O)C(=O)N[C@@H](CCCCN)C(=O)N[C@@H](CO)C(=O)N[C@@H](CCCCN)C(=O)NCC(=O)N[C@@H](CCC(N)=O)C(=O)N[C@@H](Cc1c[nH]c2ccccc12)C(=O)N[C@@H](CCC(=O)O)C(=O)NCC(=O)N[C@@H](CS)C(=O)N[C@@H](CCCCN)C(=O)N[C@@H](CCCCN)C(=O)O)C(C)C` [Peptide F370] (H-SFYSCEELVQGPAEKSKGQWEGCKK-OH) displayed a Kd of 23000 nM.
Turning to “DFYGCLLDLSLGVPSLGWRRRCITA [Peptide F429]”, the IC50 worked out at 500 nM in test [2] (experiment 13717-019); 1000 nM in test [2] (experiment 13717-027); 100 nM in test [3]; 100 nM in test [4]; 300 nM in test [5]; 50 nM in test [6]. In addition, in test [7], the IC50 is 40 nM. Moreover, the “potency for inhibiting down stream signaling through IRS-1 upon IGF-1 stimulation” value in test [7] (+/−3 nM IGF-1, FIG. 7 and FIG. 8) is on record as “potency of F429 is higher than F138”. Also, the Activity entry in [8] was “Antagonist”. The “changes in apoptosis gene expression” value in [9] is listed as “modulate apoptosis genes”. For the same compound, the “complete remission, animals” value in test [10] ([…] (50 ug/injection)) is recorded as “one”; in test [10] (group printed as 15 mg/kg, subcutaneous 4 times per week for 3 weeks) it was “one”. In addition, in test [10] ([…] (50 ug/injection), subcutaneous 4 times per week for 3 weeks), the “animals responding to treatment” value is on record as “Two out of five”. The tumor growth entry in test [10] (group printed as 15 mg/kg (design: 300 ug/injection, 12 mg/kg), subcutaneous 4 times per week for 3 weeks) is “significant inhibition of growth”.
Turning to “QFYGCLLDLSLGVPSFGWRRRCITA [Peptide F138]”, the “HIR affinity, value in brackets” value in test [11] was “(0.013%)”. Moreover, in test [2] (first value of the cell: concentration needed to blunt the effect of 10 nM IGF-1, cells in words only = effect as reported, 48 hours), the “IC50 in SW480 (M) in presence of IGF-1/alone: in presence of IGF-1” value is “Antagonistic”. The “inhibition of basal growth of SW480, doses” value in [2] (without IGF-1) was > 100 nM. Besides, the “effect on glucose uptake induced by insulin or IGF-1” value in [12] (SGBS adipocytes, FIGS. 1A and 1B) is “neither peptide F138 nor peptide F293 has any substantial effect on glucose uptake induced by insulin or IGF-1”. Besides, the “doses not affecting glucose uptake in response to insulin/IGF-1” value in test [12] (SGBS cells) is < 5 µM. For the same compound, the “inhibition of IGF-1 induced versus insulin induced phosphorylation” value in [13] is recorded as “Some selectivity for inhibiting IGF-1 induced tyrosine phosphorylation as compared to insulin induced phosphorylation”. In addition, the IC50 in [5] and in [7] was 300 nM each time. Further, in test [14], the “concentration displacing IGF-1 binding to IGF-1R on L6” value stood at 100 nM.
